{
  "source": "patent US20210340563A1",
  "about": "“DONOR T-CELLS WITH KILL SWITCH” (CSL BEHRING LLC, priority 2018, published 2021)",
  "key": {"CEM cells [1]": {"test_system": "CEM cells", "test": "negative selection with MTX or MPA on CEM cells", "format": "cell-based", "settings": "1 μM of MPA or 0.3 μM of MTX or 10 μM of MPA; for GFP-population of transduced cells under MPA or MTX: CEM experiment"}, "Jurkat cells [2]": {"test_system": "Jurkat cells", "test": "6-TG resistance of HPRT knockout Jurkat cells, luminescence (ATP detection) cell viability", "format": "cell-based", "procedure": "(§1) Jurkat cells were electroporated with a ribonucleoprotein (RNP) complex containing guide RNA (gRNA; GS-4; designated IDT-4) together with the Cas9 and tracrRNA. Cells which were confirmed to be transfected with the gRNA via tracr RNA were purified using fluorescence activated cells sorting (FACS) and subsequently cultured for 72 hours. Increasing concentrations of 6-thioguanine (6-TG) were then administered to the transduced cultured cells to assess resistance. Wild type (unmodified) Jurkat cells were used as a control.\nLuminescence (ATP detection) was used to assess cell viability."}, "CEM cells [3]": {"test_system": "CEM cells", "test": "6TG selection of HPRT knockdown/knockout CEM cells", "format": "cell-based", "procedure": "CEM cells were transduced with an expression vector including a nucleic acid sequence designed to knockdown HPRT and a nucleic acid sequence encoding the green fluorescent protein or transfected with a nanocapsule including CRISPR/Cas9 and a sgRNA to HPRT at day 0. 6TG was added into the medium from day 3 to day 17. The medium was refreshed every 3 to 4 days. GFP as analyzed on a flow machine and the InDel % is analyzed by a T7E1 assay. FIG. 13A illustrates that the GFP+ population of transduced K562 cells increased from day 3 to day 17 under treatment of 6TG while GFP+ population was almost steady without. […] It should be noted that 6TG selection process occurred faster on HPRT knockout cells rather than HPRT knockdown cells (MOI=1) at the same concentration of 6TG from day 3 to day 17."}, "K562 cells [4]": {"test_system": "K562 cells", "test": "ex vivo 6TG selection of HPRT knockdown/knockout K562 cells", "format": "cell-based, human", "procedure": "These initial preliminary experiments were performed in K562 cells (human immortalized myelogenous leukemia line) (rsh7-GFP=short hairpin to HPRT/GFP lentiviral vector to knockdown HPRT; nanoRNP-HPRT=CRISPR/Cas9 ribonucleoprotein nanocapsules to knockout HPRT).\nK562 cells were transduced with an expression vector including a nucleic acid sequence designed to knockdown HPRT and a nucleic acid sequence encoding the green fluorescent protein (GFP) (MOI=1/2/5); or were transfected with a nanocapsule including CRISPR/Cas9 and a sgRNA to knockout HPRT (100 ng/5×10^4 cells) at day zero (0). 6TG was added into the medium from day 3 through day 14. The medium was refreshed every 3 to 4 days. GFP was analyzed on a flow machine and the InDel % as analyzed with a T7E1 assay."}, "Jurkat cells [5]": {"test_system": "Jurkat cells", "test": "methotrexate dose response of HPRT knockout Jurkat cells", "format": "cell-based", "settings": "MTX 0.00625 and 0.0125 μM, cultured for 5 days", "procedure": "Jurkat cells (unmodified; WT) were cultured with increasing concentrations of methotrexate (MTX) to determine the MTX dosage window required to kill WT cells (see FIG. 28). A dose range of between 0.00625 and 0.025 μM MTX was selected for subsequent assessment of HPRT Knockout (IDT-4 modified) Jurkat cells.\nDose response of HPRT Knockout (IDT-4 modified) Jurkat cells to MTX was compared to unmodified Jurkat cells (WT) to determine sensitivity to MTX (see FIG. 29)."}, "HPRT protein": {"test_system": "HPRT protein", "test": "Western blot for HPRT protein in Jurkat cells", "format": "cell-based", "settings": "modified Jurkat cells; actin loading control", "procedure": "as §1\nUnmodified (WT) and IDT-4 modified Jurkat cells were also analyzed for HPRT protein using Western blot (see FIG. 25). […] Actin protein detection (bottom panel) was used as a protein loading control."}, "K562 cells [6]": {"test_system": "K562 cells", "test": "negative selection with MTX on K562 cells", "format": "cell-based, human", "settings": "0.3 μM of MTX, day 0 to day 14", "procedure": "Transduced or transfected K562 cells (such as those from Example 1) were cultured with or without MTX from day 0 to day 14. The medium was refreshed every 3 to 4 days. GFP was analyzed on a flow machine and the InDel % was analyzed by T7E1 assay. […] On the other hand, the population of cells was steady without MTX. FIG. 14B illustrates that the transfected K562 cells were eliminated under treatment with 0.3 μM of MTX at a faster pace as compared with the HPRT-knockdown population.\nK562 cells were transduced with either (i) a TL20cw-GFP virus soup at dilution factor of 16, (ii) a TL20cw-Ubc/GFP-7SK/sh734 virus soup at a dilution factor of 16 (one sequentially encoding GFP and a shRNA designed to knockdown HPRT); or (iii) a TL20cw-7SK/sh734-UBC/GFP virus soup at a dilution factor of 16 (one sequentially encoding a shRNA designed to knockdown HPRT and GFP) (see FIG. 16). K562 cells were also transduced by a TL20cw-7SK/sh734-UBC/GFP virus soup at a dilution factor of 1024 (one encoding a nucleic acid encoding a shRNA designed to knockdown HPRT) (also shown in FIG. 16). Three days following transduction, all cells were cultured with medium containing 0.3 μM of MTX 3. […] The relative sh734 expression per vector copy number (VCN) for sh734-GFP-transduced cells and GFP-sh734-transduced cells were measured."}, "[7]": {"settings": "900 nM of 6TG compared with 300/600 nM of 6TG"}},
  "data": [
    {"compound": "COc1c(C)c2c(c(O)c1C/C=C(\\C)CCC(=O)O)C(=O)OC2", "note": "[MPA, mycophenolic acid]", "values": [
      {"measurement": "HPRT knockout population of CEM cells under MPA or MTX", "setting": "CEM cells [1]", "result": "eliminated at a faster pace"},
      {"measurement": "GFP-population of transduced cells under MPA or MTX", "setting": "CEM cells [1]", "result": "decreased"}
    ]},
    {"compound": "Nc1nc2nc[nH]c2c(=S)[nH]1", "note": "[Vector 6TG, 6-thioguanine]", "values": [
      {"measurement": "cell viability (luminescence) of unmodified (wild type) Jurkat cells", "setting": "Jurkat cells [2]; increasing concentrations of 6-TG", "result": "decrease in cell viability"},
      {"measurement": "speed of selection of HPRT knockout CEM cells", "setting": "CEM cells [3]; [7]", "result": "faster selection"},
      {"measurement": "GFP+ population of transduced cells under treatment of 6TG", "setting": "CEM cells [3]; CEM experiment, day 3 to day 17", "result": "increased"},
      {"measurement": "HPRT knockout population of CEM cells under treatment of 6TG", "setting": "CEM cells [3]; day 3 to 17", "result": "increased"},
      {"measurement": "speed of selection of HPRT knockout K562 cells", "setting": "K562 cells [4]; [7]", "result": "faster selection"},
      {"measurement": "HPRT knockout population of K562 cells under treatment with 6TG (InDel %, T7E1 assay)", "setting": "K562 cells [4]; CRISPR/Cas9 nanocapsule transfected, day 3 to 14", "result": "increased"},
      {"measurement": "GFP+ population of transduced K562 cells under treatment of 6TG", "setting": "K562 cells [4]; HPRT knockdown vector with GFP, day 3 to day 14", "result": "increased"}
    ]},
    {"compound": "IDT-4: lead HPRT guide RNA, SEQ ID NO: 36, GGTTATGACCTTGATTTATT; used as Cas9 RNP (used with tracrRNA as Cas9 RNP, further chemistry not given here)", "values": [
      {"measurement": "cell viability (luminescence) of gRNA-modified Jurkat cells with increasing 6-TG", "setting": "Jurkat cells [2]; 6-TG tested up to 10 uM", "result": "resistance to increasing doses of 6-TG"},
      {"measurement": "sensitivity to MTX compared to wild type Jurkat cells", "setting": "Jurkat cells [5]", "result": "increased sensitivity to MTX"},
      {"measurement": "HPRT protein level by Western blot", "setting": "HPRT protein", "result": "undetectable levels of HPRT"}
    ]},
    {"compound": "CN(Cc1cnc2nc(N)nc(N)c2n1)c1ccc(C(=O)N[C@@H](CCC(=O)O)C(=O)O)cc1", "note": "[MTX, methotrexate]", "values": [
      {"measurement": "HPRT knockout population of CEM cells under MPA or MTX", "setting": "CEM cells [1]", "result": "eliminated at a faster pace"},
      {"measurement": "GFP-population of transduced cells under MPA or MTX", "setting": "CEM cells [1]", "result": "decreased"},
      {"measurement": "GFP-population of transduced K562 cells under MTX", "setting": "K562 cells [6]", "result": "decreased"},
      {"measurement": "transfected (HPRT knockout) K562 cells under MTX", "setting": "K562 cells [6]", "result": "eliminated"}
    ]}
  ]
}
